Source: patent publication EP4818152A1, “METHOD FOR PREPARING L-SERINE HYDROCHLORIDE AND USE THEREOF” (Astrogen, Inc., priority 2023, dated 2025)
Where two headings read alike, the source gives them in different places.

Columns and labels:
in vivo = conditions: mouse
Description: (§1) -6, -4, -2, and 0 hours before drug administration and 0.25, 0.5, 1, 3, 6, 9, and 12 hours after drug administration, the experimental mice were placed in a restrainer, a 2 mm incision was made at the tip of the tail, and about 40-50 µL of blood was collected into a heparin capillary tube while massaging the tail. […] Blood samples were transferred to 2 mL tubes and centrifuged at 2000× g for 10 minutes to separate the serum, which was then transferred to new tubes at about 20-25 µL per sample. […] The internal standard D, L-serine-2,3,3-d3 stock solution was prepared at a concentration of 60 µg/mL for preparing a calibration curve and at 2 µg/mL for spiking into samples. To prepare the reagents required for creating the calibration curve, 10 µL of the diluted stock solution and 10 µL of the internal standard solution (D, L-serine-2,3,3-d3, 60 µg/mL) were spiked into 980 µL of a solvent with a ratio of acetonitrile/water/trifluoroacetic acid (v/v/v, 96/5/0.5). […] The mixed solution was centrifuged at 16,000 g for 10 minutes, and the supernatant was separated and injected into LC-MS/MS at a volume of 5 µL. The ultra-high-performance liquid chromatography system consisted of a pump (LC-40D X3), an autosampler (SIL-40CX3), a column oven (CTO-40C), and a system controller (SCL-40) from Shimadzu (Duisburg, Germany), and the mass spectrometer used was a QTRQP LC-MS/MS 6500+ from SCIEX (Framingham, MA, USA). The column used was a CROWNPAK CR-I (+) [3.0 x 150 mm, 5 micron] from DAICEL (Osaka, Tokyo), and the column oven was set to 30°C. Acetonitrile/water/trifluoroacetic acid (v/v/v, 96/5/0.5) was used as the mobile phase, and the elution was performed under isocratic conditions. Mass spectrometry detection was performed under multiple reaction monitoring (MRM) conditions in ESI+ mode. MS/MS parameters were ion spray voltage, 5500 V; temperature 500°C; curtain gas, 30 psi; ion source gas (GS1), 50 psi, ion source gas (GS2), 50 psi. The declustering potential (DP), entrance potential (EP), collision energy (CE), and collision cell exit potential (CXP) values under MRM conditions were optimized in manual tuning mode using a syringe infusion pump, and mass spectrometric analysis was performed. Data acquisition and processing were performed using AB SCIEX Analyst software.

[1] = mouse, in vivo
Description: as §1

[2] = Storage stability in aqueous solution (discoloration, precipitation); format: physicochemical; conditions: stored in an aqueous solution at room temperature for one month
[3] = Mouse PK experiment (serum levels by LC-MS/MS)
Description: as §1

[4] = system: valproic acid (VPA)-induced autism model mice; assay: Three-chamber test of social interaction in VPA-induced autism model mice; format: in vivo; conditions: oral, 14 days from day 21 after birth; 3-chamber test 35 days after birth; versus vehicle-treated VPA mice
Description: In order to perform a behavioral experiment on valproic acid (VPA)-induced autism model mice using L-serine hydrochloride prepared in Example 3, 600 mg/kg of VPA dissolved in 0.9% NaCl saline was administered subcutaneously to pregnant dams to obtain 14 VPA-induced autism model mice. Meanwhile, 8 pups born to the dams that were not administered VPA were used as a control group. […] The drug was orally administered at a dose of 10 mL/kg per day based on the individual's body weight, which is equivalent, on a molar basis, to administering 400 mg/kg of L-serine hydrochloride to humans.
Thirty-five days after birth, the mice's social interaction abilities were tested using a three-chamber test. Social novelty was evaluated based on the interaction time during an initial encounter with a novel mouse compared with a re-encounter with a familiar mouse. Sociability reflects the degree of social interaction between a mouse and another mouse, and was measured by evaluating the interaction time that the mouse spent interacting with another mouse located in one side of an empty chmber.

SMILES | AUC(0-t) (in vivo) [µg·h/mL] | Cmax (in vivo) [µg/mL] | Tmax (in vivo) [min] | half-life (in vivo) [min] | Cl/F [1] | discoloration or precipitation [2] | Cl/F ([3]; mouse PK, serum) | AUC(0-t) ([3]; mouse, in vivo) [µg·h/mL] | Cmax ([3]; mouse, in vivo) [µg/mL] | Tmax ([3]; mouse, in vivo) [min] | half-life ([3]; mouse, in vivo) [min] | sociability [4] | social novelty [4]
N[C@@H](CO)C(=O)O [L-Serine, L-serine] | 81.5 ± 22.5 | 67.5 ± 25.9 | 15 | 72.6 ± 28.8 | 4.92±1.20 (mg/kg)/(µg/mL)/h | – | – | – | – | – | – | – | –
Cl.N[C@@H](CO)C(=O)O [L-Serine Hydrochloride (Example 3), L-serine hydrochloride] | – | – | – | – | – | no discoloration or precipitation occurred | 3.77±0.94 (mg/kg)/(µg/mL)/h | 141 ± 37.4 | 77.7 ± 8.49 | 37.2 | 108 ± 16.2 | statistically significant improvements | statistically significant improvements
